Reference: patent US8088784B2, “4-(3-aminopyrazole) pyrimidine derivatives for use as tyrosine kinase inhibitors in the treatment of cancer” (AstraZeneca AB, priority 2005, dated 2012)

Experiments:
human JAK2 = target: T1, human JAK2 (Homo sapiens, UniProt O60674); assay: JAK2 kinase Alphascreen assay; type: biochemical; conditions: recombinant human JAK2 (aa 808-end), 30uM ATP, 60 minutes, room temperature; read-out: JAK inhibitory activity IC50
T1 construct: human JAK2, amino acids 808-end; His6 (C); purchased Upstate Biotechnology 14-640; host or cells: baculovirus in Sf21 cells
Experimental: JAK2 kinase activity was measured for its ability to phosphorylate synthetic tyrosine residues within a generic polypeptide substrate using an Amplified Luminescent Proximity Assay (Alphascreen) technology (PerkinElmer, 549 Albany Street, Boston, Mass.).
To measure JAK2 kinase activity, commercially available purified enzyme, C-terminal His6-tagged, recombinant, human JAK2, amino acids 808-end, (Genbank Accession number NM 004972) expressed by baculovirus in Sf21 cells from Upstate Biotechnology #14-640 was used. After incubation of the kinase with a biotinylated substrate and adenosine triphosphate (ATP) for 60 minutes at room temperature, the kinase reaction was stopped by the addition of 30 mM ethylenediaminetetraacetic acid (EDTA). The reaction was performed in 384 well microtitre plates and the reaction products were detected with the addition of streptavidin coated Donor Beads and phosphotyrosine-specific antibodies coated Acceptor Beads using the EnVision Multilabel Plate Reader after an overnight incubation at room temperature.

human Trk A kinase = target: T2, human Trk A kinase (Homo sapiens, UniProt P04629); assay: Trk A kinase Alphascreen assay; type: biochemical; conditions: HIS-tagged intracellular domain of human Trk A, 70 μM ATP, 20 minutes, room temperature; read-out: Trk inhibitory activity IC50
T2 construct: His; made in house; host or cells: SF9 insect cells
Experimental: Trk A kinase activity was measured for its ability to phosphorylate synthetic tyrosine residues within a generic polypeptide substrate using an Amplified Luminescent Proximity Assay (Alphascreen) technology (PerkinElmer, 549 Albany Street, Boston, Mass.).
To measure Trk A kinase activity, the intracellular domain of a HIS-tagged human Trk A kinase (amino acids 442-796 of Trk A, Swiss-Prot Primary Accession Number P04629) was expressed in SF9 cells and purified using standard nickel column chromatography. After incubation of the kinase with a biotinylated substrate and adenosine triphosphate (ATP) for 20 minutes at room temperature, the kinase reaction was stopped by the addition of 30 mM ethylenediaminetetraacetic acid (EDTA). The reaction was performed in 384 well microtitre plates and the reaction products were detected with the addition of strepavidin coated Donor Beads and phosphotyrosine-specific antibodies coated Acceptor Beads using the EnVision Multilabel Plate Reader after an overnight incubation at room temperature.

T1 sequence (O60674 808-1132 limits assumed): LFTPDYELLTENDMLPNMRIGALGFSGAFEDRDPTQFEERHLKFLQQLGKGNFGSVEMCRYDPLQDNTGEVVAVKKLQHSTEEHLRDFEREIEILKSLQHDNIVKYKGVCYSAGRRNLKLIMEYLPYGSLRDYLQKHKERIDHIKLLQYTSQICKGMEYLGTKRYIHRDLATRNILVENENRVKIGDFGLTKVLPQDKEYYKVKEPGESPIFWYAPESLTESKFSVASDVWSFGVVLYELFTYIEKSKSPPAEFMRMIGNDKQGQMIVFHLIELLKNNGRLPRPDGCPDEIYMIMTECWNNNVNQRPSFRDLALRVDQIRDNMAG
T2 sequence (P04629 442-796): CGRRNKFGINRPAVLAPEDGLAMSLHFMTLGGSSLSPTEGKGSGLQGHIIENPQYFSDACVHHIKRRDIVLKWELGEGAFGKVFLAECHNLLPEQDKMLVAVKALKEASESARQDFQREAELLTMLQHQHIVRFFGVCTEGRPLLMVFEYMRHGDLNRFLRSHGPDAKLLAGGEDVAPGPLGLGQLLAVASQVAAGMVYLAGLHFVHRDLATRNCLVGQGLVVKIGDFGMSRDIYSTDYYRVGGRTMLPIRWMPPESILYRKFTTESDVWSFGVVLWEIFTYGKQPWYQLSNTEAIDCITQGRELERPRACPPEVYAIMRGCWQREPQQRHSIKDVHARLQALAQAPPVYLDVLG

Row | IC50 (human JAK2) [nM] | IC50 (human Trk A kinase) [nM] | SMILES
1 | 3.9 |  | COc1cc(Nc2nc(N[C@@H](C)c3ncc(F)cn3)ncc2Cl)n[nH]1 [Example 7, 5-Chloro-N^2-[(1S)-1-(5-fluoropyrimidin-2-yl)ethyl]-10-(5-methoxy-1H-pyrazol-3-yl)pyrimidine-2,4-diamine]
2 |  | 33 | CC(C)Oc1cc(Nc2nc(NC(C)c3ncc(F)cn3)ncc2Cl)n[nH]1 (centres unmarked) [Example 1, 5-Chloro-N^4-(5-isopropoxy-1H-pyrazol-3-yl)-N^2-[1-(5-fluoropyrimidin-2-yl)ethyl]pyrimidine-2,4-diamine]
